A short description of data set [1]: Drug loading efficiency, drug loading content and aqueous solubility of PEG-b-PLA micelles by RP-HPLC. The class given is physicochemical. As for the experimental part: The polymeric film was dissolved by addition of sterile water or PBS (10 mM, pH 7.4), followed by centrifugation for 5 min at 13,000 rpm and sterile filtration (0.22 μm (Coring, N.Y.)).
A short description of data set [2]: Hydrodynamic diameter of PEG-b-PLA micelles by dynamic light scattering. The class given is physicochemical. As to the method:
Proton nuclear magnetic resonance (^1H NMR) data were recorded on a Varian Unity-Inova two-channel 400 MHz NMR spectrometer (Palo Alto, Calif.) with regulated temperature at 25° C. Chemical shifts (δ) were reported in parts per million (ppm) relative to residual protonated solvent resonance at 7.26 ppm for CDCl3. Mass spectrometry data was obtained using the Waters LCT (ESI-TOF) in the Chemical Instrumentation Center in the Department of Chemistry, University of Wisconsin-Madison. Samples were sprayed from a 10 mM NH4OAc/CH3CN solution. Reverse-phase HPLC (RP-HPLC) analysis was carried out using a Shimadzu Prominence HPLC system (Shimadzu, Japan) equipped with an LC-20AT pump, a SIL-20AC HT autosampler, a CTO-20AC column oven, and a SPD-M20A diode array detector. Sample was separated by a Waters Symmetry Shield™ RP18 column (4.6 mm×250 mm, 5 μm, 100 Å). 10 μL of sample was injected at a flow rate of 0.8 mL/min, column temperature at 25° C., and UV detection wavelength at 227 nm. The separation of o(LA)n-PTX conversion products was done in gradient mode with organic phase containing 100% CH3CN as solvent A, and aqueous phase containing 100% milliQ water as solvent B. Gradient elution was employed as follows: 0 min, 50% solvent A and 50% solvent B; 35 min, 95% solvent A and 5% solvent B; and 40 min for equilibration. Hydrodynamic diameters of PEG-b-PLA micelles were measured by dynamic light scattering (DLS) using a Zetasizer Nano-ZS (Malvern Instruments Inc., UK) at 25° C. with a detection angle of […] and a He—Ne ion laser as the light source (4 mW, 633 nm). Prior to measurements, PEG-b-PLA micelle solutions were diluted with milliQ water or PBS (10 mM, pH 7.4) to afford the level of PEG-b-PLA at ˜0.1 mg/mL and 1 mL of each sample was placed into a disposable sizing cuvette (BRAND Polystyrene Cuvettes). The cumulant method was used to curve-fit the correlation function, and the z-average diameter and polydispersity index (PDI) of PEG-b-PLA micelles were calculated from the Stokes-Einstein equation and the slope of the correlation function, respectively. All measurements were performed in triplicate.

Data set [3] is described as follows: Physical stability of drug- or conjugate-loaded PEG-b-PLA micelles (precipitation). The settings on record: for Stability: PEG-b-PLA micelles; for time until SEL precipitated out of PEG-b-PLA micelles: micelles containing unconjugated SEL alone. As for the experimental part:
Instead, loading efficiency of PTX was low, ca. 21%, and drug loading for PEG-b-PLA micelles leveled off at 11.2% drug loading.
SEL drug loading for PEG-b-PLA micelles was 1% with a very low drug loading efficiency of 5%. […] In contrast, the PEG-b-PLA micelles containing unconjugated SEL were unstable and SEL precipitated out within about 5 minutes.

The test system of the next data set is A549 NSCLC cell line. The experiment in a line: IC50 values and combination index analysis of PTX, SEL and RAP alone and in combination. The class given is cell-based, human. Particulars: alone or combination at molar ratio PTX:SEL 2:3, PTX:RAP 2:1, SEL:RAP 3:1, PTX:SEL:RAP 2:3:1. As for the experimental part: The cells were seeded into a 96-well plate at a seeding density of 1,500 cells/100 μL/well and cultured in RPMI 1640 medium at 37° C. in 5% CO2 incubator for 24 h. […] Each was added into the wells to attain a final concentrations of 0.1, 1, 10, 100, and 1000 nM. The final level of DMSO in the medium was <0.1% at all drug levels. Cells cultured with diluted DMSO or PBS in medium were used as controls. Drug treated cells were placed in an incubator at 5% CO2 at 37° C. for 72 h. The medium in each well was aspirated, and 100 μL of 20% (v/v) CellTiter-Blue reagent in serum free RPMI medium was added, followed by incubation at 37° C. in 5% CO2 atmosphere for 1.5 h. Fluorescence intensity was measured by a SpectraMax M2 plate reader (Molecular Devices, CA) with excitation and emission at 560 and 590 nm, respectively. The half maximal inhibitory drug concentration (IC50) was determined by using GraphPad Prism version 5.00 for Windows (GraphPad Software, CA).
In vitro anticancer activity of PTX, SEL, and RAP alone and in combination.

Data set [4] is described as follows: In vitro release from PEG-b-PLA micelles (dialysis cassette). The format is physicochemical. As to the method:
Four dialysis cassettes were placed in 4 L PBS solution (10 mM, pH 7.4) on a Corning Hotplate Stirrer (Corning, N.Y.) at 37° C. […] At each time point, a sample of 100 μL was withdrawn, and the cassettes were replenished with 100 μL of fresh PBS solution (10 mM, pH 7.4). The external medium was replaced with 4 L of fresh buffer at 2, 4, 8, 12, 24 and 48 h to approximate sink conditions.

Data set [5] deals with human A549 non-small lung cancer cells. The experiment in a line: In vitro cytotoxicity, CellTiter-Blue Cell Viability Assay. The class given is cell-based. The settings on record: free form, 72 h. In general terms: Alamar Blue is a resazurin reagent that responds to reducing activity.
From the text: All chemicals were purchased from Sigma-Aldrich (St. Louis, Mo.) and used as received. Analytical grade organic solvents and all other reagents were purchased from Fisher Scientific (Pittsburgh, Pa.). PTX was purchased from LC Laboratories (Woburn, Mass.). PEG-b-PLA was purchased from Advanced Polymer Materials Inc. (Montreal, Canada): Mn of PEG and PLA was 4,000 and 2,200 g/mol, respectively; PDI 1.05. A549 human lung adenocarcinoma cells were purchased from ATCC (Manassas, Va.) and grown in RPMI 1640 medium supplemented with 10% fetal bovine serum (FBS), 100 IU/mL penicillin, 100 μg/mL streptomycin, and 2 mML-glutamine in 5% CO2 incubator at 37° C.
Each was added into the wells to attain a final concentrations of 0.1, 1, 10, 100, and 1000 nM. The final level of DMSO in the medium was <0.1% at all drug levels. Cells cultured with diluted DMSO or PBS in medium were used as controls. […] The medium in each well was aspirated, and 100 μL of 20% (v/v) CellTiter-Blue reagent in serum free RPMI medium was added, followed by incubation at 37° C. in 5% CO2 atmosphere for 1.5 h. Fluorescence intensity was measured by a SpectraMax M2 plate reader (Molecular Devices, CA) with excitation and emission at 560 and 590 nm, respectively. The half maximal inhibitory drug concentration (IC50) was determined by using GraphPad Prism version 5.00 for Windows (GraphPad Software, CA).
Data set [6] relates to A549 xenograft tumor model. The experiment in a line: In vivo antitumor efficacy in A549 xenograft tumor model. Details: species or system female athymic nude mice. The settings on record: PEG-b-PLA micelles, 20 mg/kg, weekly tail vein injection, 3 weekly injections and one week off x 3 cycles.
Method: All animal experiments were conducted under the protocol approved by Institutional Animal Care and Use Committee in University of Wisconsin-Madison in accordance with institutional and NIH guidance for the Care and Use of Laboratory Animals. 6-8 week-old female athymic nude mice (20-25 g each) were acquired from laboratory animal resources at School of Medicine and Public Health, University of Wisconsin-Madison. Mice were housed in ventilated cages with free access to water and food and acclimated for 1 week prior tumor cell injection. A549 cells (2×10^6 cells in 100 μL of serum-free RPMI 1640 medium) were harvested from sub-confluent cultures after trypsinization and were injected subcutaneously into the right flank of each mouse. […] Drug conjugates were administered via tail vein for 3 weekly injections, followed by 1-week rest period, totaling 3 cycles over a 12 weeks period. Body weight and tumor volume were monitored over the course of study. Tumor volume was calculated using the formula: V=(a×b^2)/2, where V is tumor volume, a is tumor length, b is tumor width.
Where [7] appears, read: Table 1B, PEG-b-PLA micelles, drug to polymer ratio 1:1.
[8] abbreviates: Table 1B, PEG-b-PLA micelles, drug to polymer ratio 1:5.
Where [9] appears, read: Table 1B, PEG-b-PLA micelles, drug to polymer ratio 1:10.
The mark [10] stands for this setting: Table 2, PTX, SEL and RAP co-loaded as 3-in-1 micelle, initial level 1, 1.5, 0.5 mg, molar ratio 2:6:1, 21 mg PEG4000-b-PLA2200.
Setting [11] is: Table 1B, drug to polymer ratio 1:1.
[12] abbreviates: Table 1B, drug to polymer ratio 1:5.
Where [13] appears, read: Table 1B, drug to polymer ratio 1:10.
The mark [14] stands for this setting: Table 1A, PEG-b-PLA micelles, drug to polymer ratio 1:10, initial level 1 mg, mean ± SD, n = 3.
[15] abbreviates: Table 1C, PEG-b-PLA micelles, drug to polymer ratio 1:5.
Where [16] appears, read: Table 1C, drug to polymer ratio 1:5.

The values that follow come from patent publication US10456477B2, “Oligolactic acid conjugates and micelles with enhanced anticancer efficacy” (Wisconsin Alumni Research Foundation, priority 2016, dated 2019).

Molecules are shown by their SMILES. Values after ≈ are worked out from the molar mass of the structure shown. Values joined by “and” are separate entries in the source; they are usually repeats but may differ in a detail not shown here. Equal entries are not always repeated. Where two headings read alike, the source gives them in different places.

For orientation: solubility means the dissolved amount per volume that the medium holds. The term IC50 denotes the concentration that gives 50% inhibition.

Consider `CO[C@H]1C[C@@H]2CC[C@@H](C)[C@@](O)(O2)C(=O)C(=O)N2CCCC[C@H]2C(=O)O[C@H]([C@H](C)C[C@@H]2CC[C@@H](O)[C@H](OC)C2)CC(=O)[C@H](C)/C=C(\C)[C@@H](O)[C@@H](OC)C(=O)[C@H](C)C[C@H](C)/C=C/C=C/C=C/1C` [RAP, rapamycin], for which the solubility in data set [1] (PEG-b-PLA micelles, aqueous with cosolvent or surfactant or cyclodextrin, Table 1B, PEG-b-PLA micelles, drug to polymer ratio 1:1, read-out: Apparent solubility) turned out to be 500 µg/mL; in data set [1] (PEG-b-PLA micelles, aqueous with cosolvent or surfactant or cyclodextrin, Table 1B, PEG-b-PLA micelles, drug to polymer ratio 1:5, read-out: Apparent solubility), 900 µg/mL; in data set [1] (PEG-b-PLA micelles, aqueous with cosolvent or surfactant or cyclodextrin, Table 1B, PEG-b-PLA micelles, drug to polymer ratio 1:10, read-out: Apparent solubility) it was 1400 µg/mL. For the same molecule, the Drug loading worked out at 11.5% in data set [1] (setting [7]), 7.3% in data set [1] (setting [8]), 6.4% in data set [1] (setting [9]) and 2.2% in data set [1] (setting [10]). Also, the figures for the Drug loading efficiency in data set [1] (setting [7]), in data set [1] (setting [8]) and in data set [1] (setting [9]) were 23%, 44.0% and 70.1%, respectively. Also, the Loading efficiency in data set [1] (setting [10]) was 100% and 104.6%. Moreover, the Particle size is 59.5 ± 21.6 nm in data set [2] (setting [11]), 36.2 ± 0.4 nm in data set [2] (setting [12]) and 37.7 ± 1.9 nm in data set [2] (setting [13]). The Stability in data set [3] (setting [11]), in data set [3] (setting [12]) and in data set [3] (setting [13]) was below 24 h each time. The “micelles released drug in” value in data set [3] (all PEG-b-PLA micelles containing unconjugated RAP) is recorded as “less than 24 hours”. Further, the IC50 in the data set on A549 NSCLC cell line was found to be 320.6 ± 2.3 nM.

Take `CC(=O)O[C@H]1C(=O)[C@@]2(C)[C@H]([C@H](OC(=O)c3ccccc3)[C@]3(O)C[C@H](OC(=O)[C@H](O)[C@@H](NC(=O)c4ccccc4)c4ccccc4)C(C)=C1C3(C)C)[C@]1(OC(C)=O)CO[C@@H]1C[C@@H]2O` [PTX, paclitaxel]: the solubility in data set [1] (PEG-b-PLA micelles in water, aqueous with cosolvent or surfactant or cyclodextrin, Table 1A, PEG-b-PLA micelles, drug to polymer ratio 1:10, initial level 1 mg, mean ± SD, n = 3, read-out: Apparent solubility) is 900 µg/mL; in data set [1] (PEG-b-PLA micelles in water, aqueous with cosolvent or surfactant or cyclodextrin, Table 1A, PEG-b-PLA micelles, drug to polymer ratio 3:5, initial level 6 mg, mean ± SD, n = 3, read-out: Apparent solubility) it was 1200 ± 100 µg/mL; in data set [1] (water, PTX without PEG-b-PLA micelles, read-out: water solubility), around 10 µg/mL (≈ 11.7 µM). The Drug loading in data set [1] (setting [14]) is 8.6% and 8.6 ± 1.1%; in data set [1] (Table 1A, PEG-b-PLA micelles, drug to polymer ratio 3:5, initial level 6 mg, mean ± SD, n = 3), 11.2% and 11.2 ± 1.1%; in data set [1] (setting [10]), 4.3%. Besides, the Drug loading efficiency in data set [1] (setting [14]) is recorded as 93.8 ± 12.8%. Besides, the Loading efficiency in data set [1] (setting [10]) was 100% and 104%. The “Particle size” value in data set [2] (Table 1A, drug to polymer ratio 1:10, initial level 1 mg, 10 mg PEG-b-PLA, mean ± SD, n = 3) is 30.5 nm and 30.5 ± 0.3 nm; in data set [2] (Table 1A, drug to polymer ratio 3:5, initial level 6 mg, 10 mg PEG-b-PLA, mean ± SD, n = 3), 37.0 ± 5.7 nm. Also, the “micelles precipitating in” value in data set [3] (PEG-b-PLA micelles at room temperature) was “less than 2 hours”. In addition, the “precipitation of PTX during in vitro release” value in data set [4] (9% drug loading, particle size 30 nm, PEG-b-PLA micelles) was below 4 h. For the same molecule, the “in vitro release from PEG-b-PLA micelles (in words)” value in data set [4] (PBS 10 mM, pH 7.4, 37° C., FIG. 4) was “rapidly released”. In addition, the IC50 in data set [5] was 2 nM; with A549 NSCLC cell line, 7.4 ± 1.2 nM. Further, the “tumor growth / tumor volume” value in data set [6] was “tumor growth inhibition during treatment over 71 days and delayed tumor growth”.

As to `Cn1cnc2c(F)c(Nc3ccc(Br)cc3Cl)c(C(=O)NOCCO)cc21` [SEL, selumetinib], the “drug loading, loaded in micelles with free paclitaxel and free rapamycin” value in data set [1] (3-drug co-loading) is given as “greater than 6 wt %”. Besides, in data set [1] (setting [15]), the Drug loading is on record as 1%; the Drug loading efficiency is 5% and 5.1%. Further, in data set [1] (setting [10]), the Drug loading is on record as 6.3%; the Loading efficiency was 100% and 101.7%. In data set [1] (aqueous with cosolvent or surfactant or cyclodextrin, Table 1C, PEG-b-PLA micelles, drug to polymer ratio 1:5, read-out: Apparent solubility), the solubility was 100 µg/mL. Besides, the “drug loading, loaded alone in micelles” value in data set [1] (free selumetinib alone) is “about 1 wt %”. Also, in data set [2] (setting [16]), the Particle size was determined as 60.6 ± 0.6 nm. In data set [3] (setting [16]), the Stability was below 2 h. For the same molecule, the “time until SEL precipitated out of PEG-b-PLA micelles” value in data set [3] is at most 5 min. Besides, the “time until SEL precipitated out of PEG-b-PLA micelles” value in data set [3] (listed as selumetinib) is “about 5 minutes”. Besides, the IC50 with A549 NSCLC cell line came out at 1729 ± 1.6 nM.
